Laboratory results taken from patent US11739101B2, “Bifunctional degraders of hematopoietic progenitor kinase and therapeutic uses thereof” (Nurix Therapeutics, Inc., priority 2020, dated 2023).

Each compound was assayed against T1, HPK1 (Homo sapiens, UniProt Q92918) (assay: HPK1 Cellular HiBiT Degradation Assay). Details: HiBiT-tagged HPK1 Jurkat cells, 24 hours, 10 uM to 0.1 nM; Dmax = 100 minus lowest % HPK1 remaining vs DMSO vehicle.
T1 construct: A HiBiT tag was introduced by CRISPR on the N terminus of HPK1 in Jurkat cells; host or cells: Jurkat (ATCC TIB-152), monoclonal CRISPR HiBiT knock-in line
Format: cell-based
Method: HiBiT HPK1 Jurkat cell lines were used to evaluate the total protein levels of HPK1 in a robust human cellular high throughput format. The level of HPK1 remaining following treatment with HPK1 CTMs is reported as Dmax (maximum degradation) achieved at 24 hours when compared to vehicle treated controls. […] These decreases were not a result of cytotoxicity measured by a parallel viability assessment (CTG). See also Table 1.
A HiBiT tag was introduced by CRISPR on the N terminus of HPK1 in Jurkat cells (ATCC® TIB-152) to allow quantitation of HPK1 protein levels in a monoclonal human cell line. Cells were plated at 1×10^6 cells/mL, 30 uL/well (3×10^4 cells/well) in complete RPMI 1640 (10% heat inactivated FBS, 1% L-glutamine) in 384-well assay plates (Corning, cat. no. 3570). HPK1 chimeric targeting molecules (CTMs) were added in an 11-point dilution series (3.16-fold) with a final assay concentration range of 10 uM to 0.1 nM. The parental Jurkat cell line, with no HiBiT insertion, was included in the assay as a background control. Cells treated with a DMSO vehicle control were used to determine the maximum signal defining 100% HPK1 in the cell. Cells were incubated for 24 hours at 37° C./5% CO2. Following incubation, 30 uL of complete Nano-Glo HiBiT Lytic Detection Reagent (Promega cat. no. N3040) was added. Cells were incubated for 10 minutes at room temperature and luminescence was read on an EnVision plate reader (Perkin Elmer, 0.1 sec per well). Parallel plates were assessed for viability using Cell Titer Glo (Promega) and read on an EnVision plate reader to ensure results were not the effect of cytotoxicity. Percent HPK1 remaining per sample was calculated as follows: […]
% HPK1 remaining values were plotted as a function of compound concentration and curves were fit using the Prism (GraphPad) equation “log(inhibitor) vs response−Variable slope (four parameters)”. Dmax values were calculated by identifying the lowest % remaining and subtracting from 100. Dmax values are provided in Table 1, wherein A>65%, 45%≤B≤65% and C<45%.

T1 sequence (Q92918 whole entry): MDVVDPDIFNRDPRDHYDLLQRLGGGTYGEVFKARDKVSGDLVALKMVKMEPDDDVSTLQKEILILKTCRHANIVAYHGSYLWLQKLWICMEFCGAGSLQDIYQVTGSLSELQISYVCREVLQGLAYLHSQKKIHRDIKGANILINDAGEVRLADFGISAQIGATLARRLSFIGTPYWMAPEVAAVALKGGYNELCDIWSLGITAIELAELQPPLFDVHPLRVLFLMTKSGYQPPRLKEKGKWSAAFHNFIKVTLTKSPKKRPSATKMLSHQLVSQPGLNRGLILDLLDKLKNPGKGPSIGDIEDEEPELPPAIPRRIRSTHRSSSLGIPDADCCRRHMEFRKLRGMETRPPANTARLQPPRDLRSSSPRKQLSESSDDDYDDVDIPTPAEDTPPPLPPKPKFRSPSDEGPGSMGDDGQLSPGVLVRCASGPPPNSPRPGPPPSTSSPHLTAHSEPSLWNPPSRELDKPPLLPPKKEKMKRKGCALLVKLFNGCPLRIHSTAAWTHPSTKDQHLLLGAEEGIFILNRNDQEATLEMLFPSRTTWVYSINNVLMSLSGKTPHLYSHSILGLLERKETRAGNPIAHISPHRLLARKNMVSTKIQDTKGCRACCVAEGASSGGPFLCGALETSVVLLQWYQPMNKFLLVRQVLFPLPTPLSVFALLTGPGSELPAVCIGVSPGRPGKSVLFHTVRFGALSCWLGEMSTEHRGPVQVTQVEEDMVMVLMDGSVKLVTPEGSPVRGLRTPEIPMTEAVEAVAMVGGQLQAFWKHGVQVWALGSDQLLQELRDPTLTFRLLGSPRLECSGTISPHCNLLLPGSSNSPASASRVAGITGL

Structure (SMILES)	Dmax [%]	Cellular HPK1 HiBiT: Dmax (%)
Cc1cc(F)c(Nc2nc(-c3ccc4c(c3)N([C@H]3C[C@@H](N5CCCCC5)C3)C(=O)C43CCN(C(=O)C[C@@H]4CCN(C(=O)[C@H]5CC[C@H](Nc6cccc7c6C(=O)N(C6CCC(=O)NC6=O)C7=O)CC5)C4)CC3)cc3ncn(C(C)C)c23)cc1C(=O)NC(C)C (stereo partly drawn) [Example 56, 4-fluoro-2-methyl-5-{[6-(2-oxo-1′-{2-[(3S)-1-[(1R,4R)-4-({2-[2,6-dioxopiperidin-3-yl]-1,3-dioxo-2,3-dihydro-1H-isoindol-4-yl}amino)cyclohexanecarbonyl]pyrrolidin-3-yl]acetyl}-1-[(1s,3s)-3-(piperidin-1-yl)cyclobutyl]-1,2-dihydrospiro[indole-3,4′-piperidin]-6-yl)-3-(propan-2-yl)-3H-imidazo[4,5-c]pyridin-4-yl]amino}-N-(propan-2-yl)benzamide]	< 45	
Cc1cc(F)c(Nc2nc(-c3ccc4c(c3)N([C@H]3C[C@@H](N5CCCCC5)C3)C(=O)C43CCN(C(=O)C4CCN(C(=O)C[C@@H]5CCCN(c6cccc7c6C(=O)N(C6CCC(=O)NC6=O)C7=O)C5)C4)CC3)cc3ncn(C(C)C)c23)cc1C(=O)NC(C)C (stereo partly drawn) [Example 32, 5-({6-[1′-(1-{2-[(3S)-1-{2-[2,6-dioxopiperidin-3-yl]-1,3-dioxo-2,3-dihydro-1H-isoindol-4-yl}piperidin-3-yl]acetyl}pyrrolidine-3-carbonyl)-2-oxo-1-[(1s,3s)-3-(piperidin-1-yl)cyclobutyl]-1,2-dihydrospiro[indole-3,4′-piperidin]-6-yl]-3-(propan-2-yl)-3H-imidazo[4,5-c]pyridin-4-yl}amino)-4-fluoro-2-methyl-N-(propan-2-yl)benzamide]	< 45	
Cc1cc(F)c(Nc2nc(-c3ccc4c(c3)N([C@H]3C[C@@H](N5CCCCC5)C3)C(=O)C43CCN(C(=O)c4ccc(N5CCN(c6ccc7c(c6)C(=O)N(C6CCC(=O)NC6=O)C7=O)CC5)nc4)CC3)cc3ncn(C(C)C)c23)cc1C(=O)NC(C)C (some centres unmarked) [Example 85, 5-((6-(1′-(6-(4-(2-(2,6-dioxopiperidin-3-yl)-1,3-dioxoisoindolin-5-yl)piperazin-1-yl)nicotinoyl)-2-oxo-1-((1s,3s)-3-(piperidin-1-yl)cyclobutyl)spiro[indoline-3,4′-piperidin]-6-yl)-3-isopropyl-3H-imidazo[4,5-c]pyridin-4-yl)amino)-4-fluoro-N-isopropyl-2-methylbenzamide]	< 45	
Cc1cc(F)c(Nc2nc(-c3ccc4c(c3)N([C@H]3C[C@@H](N5CCCCC5)C3)C(=O)C43CCN(C(=O)[C@@H]4CCN(C(=O)[C@H]5CC[C@H](Nc6ccc7c(c6)C(=O)N(C6CCC(=O)NC6=O)C7=O)CC5)C4)CC3)cc3ncn(C(C)C)c23)cc1C(=O)NC(C)C (stereo partly drawn) [Example 81, 5-((6-(1′-((3R)-1-((1R,4R)-4-((2-(2,6-dioxopiperidin-3-yl)-1,3-dioxoisoindolin-5-yl)amino)cyclohexane-1-carbonyl)pyrrolidine-3-carbonyl)-2-oxo-1-((1s,3s)-3-(piperidin-1-yl)cyclobutyl)spiro[indoline-3,4′-piperidin]-6-yl)-3-isopropyl-3H-imidazo[4,5-c]pyridin-4-yl)amino)-4-fluoro-N-isopropyl-2-methylbenzamide]	45 to 65	
Cc1cc(F)c(Nc2nc(-c3ccc4c(c3)N([C@H]3C[C@@H](N5CCCCC5)C3)C(=O)C43CCN(C(=O)c4cccc(C5CCN(c6cccc7c6C(=O)N(C6CCC(=O)NC6=O)C7=O)CC5)c4)CC3)cc3ncn(C(C)C)c23)cc1C(=O)NC(C)C (some centres unmarked) [Example 53, 5-[(6-{1′-[3-(1-{2-[2,6-dioxopiperidin-3-yl]-1,3-dioxo-2,3-dihydro-1H-isoindol-4-yl}piperidin-4-yl)benzoyl]-2-oxo-1-[(1s,3s)-3-(piperidin-1-yl)cyclobutyl]-1,2-dihydrospiro[indole-3,4′-piperidin]-6-yl}-3-(propan-2-yl)-3H-imidazo[4,5-c]pyridin-4-yl)amino]-4-fluoro-2-methyl-N-(propan-2-yl)benzamide]		B (45%≤B≤65%)
Cc1cc(F)c(Nc2nc(-c3ccc4c(c3)N([C@H]3C[C@@H](N5CCCCC5)C3)C(=O)C43CCN(C(=O)C4CN(CC5CCN(c6cccc7c6C(=O)N(C6CCC(=O)NC6=O)C7=O)CC5)C4)CC3)cc3ncn(C(C)C)c23)cc1C(=O)NC(C)C (some centres unmarked) [Example 33, 5-{[6-(1′-{1-[(1-{2-[2,6-dioxopiperidin-3-yl]-1,3-dioxo-2,3-dihydro-1H-isoindol-4-yl}piperidin-4-yl)methyl]azetidine-3-carbonyl}-2-oxo-1-[(1s,3s)-3-(piperidin-1-yl)cyclobutyl]-1,2-dihydrospiro[indole-3,4′-piperidin]-6-yl)-3-(propan-2-yl)-3H-imidazo[4,5-c]pyridin-4-yl]amino}-4-fluoro-2-methyl-N-(propan-2-yl)benzamide]	> 65	
Cc1cc(F)c(Nc2nc(-c3ccc4c(c3)N([C@H]3C[C@@H](N5CCCCC5)C3)C(=O)C43CCN(C(=O)CCCCCCCOc4cc(-c5scnc5C)ccc4CNC(=O)[C@@H]4C[C@@H](O)CN4C(=O)[C@@H](NC(=O)C4(F)CC4)C(C)(C)C)CC3)cc3ncn(C(C)C)c23)cc1C(=O)NC(C)C [Example 13, (2S,4R)—N-(2-((8-(6-(4-((2-fluoro-5-(isopropylcarbamoyl)-4-methylphenyl)amino)-3-isopropyl-3H-imidazo[4,5-c]pyridin-6-yl)-2-oxo-1-((1s,3s)-3-(piperidin-1-yl)cyclobutyl)spiro[indoline-3,4′-piperidin]-1′-yl)-8-oxooctyl)oxy)-4-(4-methylthiazol-5-yl)benzyl)-1-((S)-2-(1-fluorocyclopropane-1-carboxamido)-3,3-dimethylbutanoyl)-4-hydroxypyrrolidine-2-carboxamide]	< 45	
Cc1cc(F)c(Nc2nc(-c3ccc4c(c3)N([C@H]3C[C@@H](N5CCCCC5)C3)C(=O)C43CCN(C(=O)CN4CCN(CC(=O)N[C@H](C(=O)N5C[C@H](O)C[C@H]5C(=O)N[C@@H](C)c5ccc(-c6scnc6C)cc5)C(C)(C)C)CC4)CC3)cc3ncn(C(C)C)c23)cc1C(=O)NC(C)C [Example 18, (2S,4R)-1-((S)-2-(2-(4-(2-(6-(4-((2-fluoro-5-(isopropylcarbamoyl)-4-methylphenyl)amino)-3-isopropyl-3H-imidazo[4,5-c]pyridin-6-yl)-2-oxo-1-((1s,3s)-3-(piperidin-1-yl)cyclobutyl)spiro[indoline-3,4′-piperidin]-1′-yl)-2-oxoethyl)piperazin-1-yl)acetamido)-3,3-dimethylbutanoyl)-4-hydroxy-N—((S)-1-(4-(4-methylthiazol-5-yl)phenyl)ethyl)pyrrolidine-2-carboxamide]	45 to 65	
Cc1cc(F)c(Nc2nc(-c3ccc4c(c3)N([C@H]3C[C@@H](N5CCCCC5)C3)C(=O)C43CCN(C(=O)C4CCN(Cc5ccc(C(=O)NCCNc6cccc7c6C(=O)N(C6CCC(=O)NC6=O)C7=O)nc5)CC4)CC3)cc3ncn(C(C)C)c23)cc1C(=O)NC(C)C (some centres unmarked) [Example 89, N-(2-{[2-(2,6-dioxopiperidin-3-yl)-1,3-dioxoisoindol-4-yl]amino}ethyl)-5-[(4-{[6-(4-{[2-fluoro-5-(isopropylcarbamoyl)-4-methylphenyl]amino}-3-isopropylimidazo[4,5-c]pyridin-6-yl)-2-oxo-1-[(s,3s)-3-(piperidin-1-yl)cyclobutyl]spiro[indole-3,4′-piperidin]-1′-yl]carbonyl}piperidin-1-yl)methyl]pyridine-2-carboxamide]	> 65	
Cc1cc(F)c(Nc2nc(-c3ccc4c(c3)N([C@H]3C[C@@H](N5CCCCC5)C3)C(=O)C43CCN(C(=O)CN4CCN(c5ccc6c(c5)C(=O)N(C5CCC(=O)NC5=O)C6=O)CC4)CC3)cc3ncn(C(C)C)c23)cc1C(=O)NC(C)C (mixture of isomers) [Example 23, 5-[(6-{1′-[2-(4-{2-[(3RS)-2,6-dioxopiperidin-3-yl]-1,3-dioxo-2,3-dihydro-1H-isoindol-5-yl}piperazin-1-yl)acetyl]-2-oxo-1-[(1s,3s)-3-(piperidin-1-yl)cyclobutyl]-1,2-dihydrospiro[indole-3,4′-piperidin]-6-yl}-3-(propan-2-yl)-3H-imidazo[4,5-c]pyridin-4-yl)amino]-4-fluoro-2-methyl-N-(propan-2-yl)benzamide]	< 45	
Cc1cc(F)c(Nc2nc(-c3ccc4c(c3)N([C@H]3C[C@@H](N5CCCCC5)C3)C(=O)C43CCN(C(=O)c4ccc(N(C)C5CCN(c6ccc7c(c6)C(=O)N(C6CCC(=O)NC6=O)C7=O)CC5)cc4)CC3)cc3ncn(C(C)C)c23)cc1C(=O)NC(C)C (some centres unmarked) [Example 97, 5-{[6-(1′-{4-[(1-{2-[2,6-dioxopiperidin-3-yl]-1,3-dioxoisoindol-5-yl}piperidin-4-yl)(methyl)amino]benzoyl}-2-oxo-1-[(1s,3s)-3-(piperidin-1-yl)cyclobutyl]spiro[indole-3,4′-piperidin]-6-yl)-3-isopropylimidazo[4,5-c]pyridin-4-yl]amino}-4-fluoro-N-isopropyl-2-methylbenzamide]	45 to 65	
